Data as given in patent publication US7670967B2, “Dispersible alcohol/cleaning wipes via topical or wet-end application of acrylamide or vinylamide/amine polymers” (Kimberly-Clark Worldwide, Inc., priority 2004, dated 2010).

Test: Solubility parameter (Hildebrand parameter) values for selected solvents and polyacrylamide
Details: solvent with polyacrylamide homopolymer, δ 21
From the text: Determination of a suitable lower level alcohol, glycol, ketone, or mixtures thereof may be conducted using the solubility. The solubility of an amorphous polymer in a given solvent is governed by the Gibbs free energy of mixing given by Equation (1): ΔGm=ΔHm−TΔSm (1 ) ΔGm is the free energy change of the system upon mixing. ΔHm and ΔSm are the enthalpy and entropy change upon mixing, respectively, and T is the absolute temperature. When the free energy of mixing is less than zero (ΔGm<0) for a given polymer and solvent (or solvent mixture thereof), a single-phase system is obtained and mixing occurs spontaneously.
Solubility parameters, originally developed to describe enthalpy of mixing with simple nonpolar solvents, have been extended to describe the interactions of polymers and polar solvent. The enthalpy of mixing of such systems is expressed in a form like Equation (2):
[formula] […]
The units of δ may be difficult to rationalize. They are generally expressed as units of MPa½ or (cal/cm^3)^1/2. One simple way to understand these units is to note that Equation (4) calls for a solution in terms of a quantity of energy. It can be readily seen that substitution of δ values in terms of (cal/cm^3)^1/2 or MPa½ into Equation (4) results in a quantity of energy in terms of calories or joules, respectively, after unit cancellation (1 MPa=1 kJ/m^3). […]

| Compound | (δ1 − δ2)^2 PAM (cohesive energy difference parameter) |
| --- | --- |
| n-Propyl alcohol | 82.8 |
| CC(C)=O [Acetone] | 123.2 |
